Source: patent publication US5962633A, “Cytotoxic T-lymphocyte antigen as cysteine protease inhibitor” (Bayer Corporation, priority 1995, dated 1999)
Like-named read-outs stand apart in the source and are kept apart here. No end group written: not given here.

Assays:
[1] = tested on: cartilage proteoglycan degradation; conditions: 100 μM; cited from earlier work
human liver Cathepsin L = biological target: T1, human liver Cathepsin L (Homo sapiens, UniProt P07711); assay: Cathepsin L fluorescence assay (hydrolysis of Z-Phe-Arg-AMC); assay type: biochemical
T1 construct: from tissue; host or cells: human liver
Description: A fluorescence based assay was set up according to Barrett and Kirschke (Barrett et al., 1981, Meth. in Enz., 80:535).
The enzyme sample was diluted with 750 μl of assay buffer (340 mM sodium acetate--60 mM acetic acid--4 mM disodium EDTA, pH 5.5 and 8 mM DTT added fresh) and various concentrations of CTAL-2β (a final concentration of 5-50 nM), was added. After an incubation period of 6 minutes at room temperature, 1500 μl of 0.1% Brij 35 was added. The substrate Z-Phe-Arg-AMC (AMC is aminomethyl-coumarin) was added at a final concentration of either 2.5 μM or 5.0 μM.
The fluoresence of the free aminomethyl-coumarin was measured in an SLM 4800S fluorimeter by excitation at 370 nm and emission at 432 nm over a six minute time period. […] In order to calculate the velocities, a linear least squares analysis was performed over the initial linear part of the data.
The Ki value is equal to the negative of the X-axis intercept that gives the same velocity at the different substrate concentrations if there is competitive inhibition (Dixon et al., 1979, Enzymes, 3rd Ed., Academic Press, New York, page, 365).
These peptides were tested for inhibition of Cathepsin L activity using the assays described previously. Briefly, Cathepsin L (19 pM final as determined by active site titration using E-64, Barret & Kirschke, 1991) was added to 750 μL of assay buffer consisting of […] sodium acetate--60 mM acetic acid (pH 5.5), 4 mM disodium EDTA, and 8 mM DTT. Peptides were added at concentrations ranging from on to 35 μM. […] The fluorescence of the free aminomethylcoumarin was measured in an SLM 4800s fluorimeter at excitation of 370 nm and an emission at 432 nm over a 6 minute time period. Fluorence was converted to μM AMC released by using a standard curve generated by plotting μM AMC vs. fluorescence, and plotted vs. time. […] The i.c. 50 values were determined from Dixon plots of the form V-/V+ (velocity without peptide/velocity with peptide) vs. peptide concentration. […]

[2] = tested on: proteoglycan release from articular cartilage explants; assay: Micro organ culture assay (MOCA): IL-1 induced proteoglycan release from articular cartilage explants; assay type: cell-based, calf; conditions: p117 10 μM (best concentration); IL-1 alpha 50 U/ml
Excerpt: The assay system used for testing the peptides for inhibitory activity of proteolglycan release is a micro organ culture assay (MOCA). Papain; cetyl pyridinium chloride and chondroitin sulfate type C was purchased from Sigma Chemical Co. (St. Louis, MO). Interleukin 1 alpha was purchased from Collaborative Research. ABCase, chrondroitinase, ABC lyase, and keratanase were obtained from ICL Na^35 SO4 was purchased from NEN.
Articular cartilage explants from calk knee joints were maintained in culture in DMEM medium containing 20 μCi/ml Na ^35 SO4 for 48 hours for the incorporation of label into newly synthesized proteoglycan (PG). The radiolabelled medium was then removed, the radiolabelled explants washed 3×30 ml cold DMEM and placed into a 96 well plate with or without IL-1 (Interleukin-1 alpha, 50 U/ml) and various concentrations of p117. The explants were incubated first for 24 hours in the presence of IL-1 in order to ensure initiation of IL-1 indicated auto-catalysis prior to the addition of various metalloprotease inhibitors for an additional 72 hours.
The newly synthesized radiolabelled proteoglycans released during the cultivation period were subjected to enzymatic digestion with papain. […] The filter was dried and counted after addition of 10 mls of scintillation cocktail (scintillant).

papain = papain (Carica papaya, UniProt P00784); conditions: read-out: i.c. 50 in Papain Assay; substrate Z-Phe-Arg-AMC; papain 33.3 ng/ml; Dixon plot V-/V+ vs. I
Description: The fluorescence was measured and the i.c. 50 was determined.

T1 sequence (P07711 114-288 limits assumed): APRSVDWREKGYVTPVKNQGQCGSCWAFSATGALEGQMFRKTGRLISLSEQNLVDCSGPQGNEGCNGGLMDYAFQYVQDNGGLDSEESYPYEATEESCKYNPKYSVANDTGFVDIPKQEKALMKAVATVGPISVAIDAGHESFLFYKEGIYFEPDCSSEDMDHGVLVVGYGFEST
T1 sequence (P07711 292-333 limits assumed): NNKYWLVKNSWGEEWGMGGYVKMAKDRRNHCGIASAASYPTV
Chain of papain (P00784 134-345): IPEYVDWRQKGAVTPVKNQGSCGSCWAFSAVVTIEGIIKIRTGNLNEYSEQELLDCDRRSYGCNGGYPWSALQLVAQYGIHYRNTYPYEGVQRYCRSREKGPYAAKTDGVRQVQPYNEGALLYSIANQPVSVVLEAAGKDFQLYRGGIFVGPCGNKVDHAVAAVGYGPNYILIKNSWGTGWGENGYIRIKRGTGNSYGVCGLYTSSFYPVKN

CC(C)C[C@H](NC(=O)[C@H]1O[C@@H]1C(=O)O)C(=O)NCCCCN=C(N)N (relative stereo) [E64, trans-epoxysuccinyl L-leucylamido-(4-guanido)butane]
inhibition of IL-1 stimulated cartilage proteoglycan degradation [1]: did not work

CC(C)CCNC(=O)[C@H](CC(C)C)NC(=O)[C@H]1O[C@@H]1C(=O)O [Ep475]
inhibition of IL-1 stimulated cartilage proteoglycan degradation [1]: did not work

CRGEMAPDLPEYEDLG [p092]
IC50 (human liver Cathepsin L; Cathepsin L 19 pM, 5.0 μM Z-Phe-Arg-NMec (AMC), 6 minute incubation at 25° C., read-out: i.c. 50 (synthetic peptides, Cathepsin L)): 41000 nM

ENKKKIEAHNADYERGKTSFC [P089]
inhibition of Cathepsin L at 10 uM peptide (human liver Cathepsin L; peptide 10 uM, printed in the i.c. 50 column): 25%

YSLDEERHRRLMWEENKKKIEAH [p117]
% inhibition of proteoglycan release [2]: about 30%

B1: monomeric CTLA-2β: monomeric form of recombinant CTLA-2β, mass 12.8 kd, reverse-phase purified (protein, UniProt P12400 1-113, looked up)
Protein CTLA-2-beta: MMSAAPSPDPSLDNEWKEWKTTFAKAYSLDEERHRRLMWEENKKKIEAHNADYERGKTSFYMGLNQFSDLTPEEFRTNCCGSSMCRGEMAPDLPEYEDLGKNSYLTPGRAQPE
IC50 (papain): 14 nM
IC50 (human liver Cathepsin L; reverse-phase purified CTLA-2β, Dixon plot V-/V+ vs. I, substrate Z-Phe-Arg-AMC, read-out: i.c. 50 in Cathepsin L Assay): 18.2 nM
